≈ marks a conversion by molar mass, not a printed value.
Tests used:
Enterobacter cloacae [1] = experiment: In vitro antibacterial activity against Enterobacter cloacae; range is 31.3->1000; type: functional
Klebsiella pneumoniae [2] = experiment: In vitro antibacterial activity against Klebsiella pneumoniae; range is 31.3->1000; type: functional
Moraxella catarrhalis [3] = experiment: In vitro antibacterial activity against Moraxella catarrhalis; range is 31.3->1000; type: functional
[4] = target: T1, Penicillin-binding protein 2 (Staphylococcus aureus, UniProt Q53729); experiment: Inhibition of Penicillin-binding protein 2 (PBP2) from Staphylococcus aureus
T1 sequence (Q53729 whole entry): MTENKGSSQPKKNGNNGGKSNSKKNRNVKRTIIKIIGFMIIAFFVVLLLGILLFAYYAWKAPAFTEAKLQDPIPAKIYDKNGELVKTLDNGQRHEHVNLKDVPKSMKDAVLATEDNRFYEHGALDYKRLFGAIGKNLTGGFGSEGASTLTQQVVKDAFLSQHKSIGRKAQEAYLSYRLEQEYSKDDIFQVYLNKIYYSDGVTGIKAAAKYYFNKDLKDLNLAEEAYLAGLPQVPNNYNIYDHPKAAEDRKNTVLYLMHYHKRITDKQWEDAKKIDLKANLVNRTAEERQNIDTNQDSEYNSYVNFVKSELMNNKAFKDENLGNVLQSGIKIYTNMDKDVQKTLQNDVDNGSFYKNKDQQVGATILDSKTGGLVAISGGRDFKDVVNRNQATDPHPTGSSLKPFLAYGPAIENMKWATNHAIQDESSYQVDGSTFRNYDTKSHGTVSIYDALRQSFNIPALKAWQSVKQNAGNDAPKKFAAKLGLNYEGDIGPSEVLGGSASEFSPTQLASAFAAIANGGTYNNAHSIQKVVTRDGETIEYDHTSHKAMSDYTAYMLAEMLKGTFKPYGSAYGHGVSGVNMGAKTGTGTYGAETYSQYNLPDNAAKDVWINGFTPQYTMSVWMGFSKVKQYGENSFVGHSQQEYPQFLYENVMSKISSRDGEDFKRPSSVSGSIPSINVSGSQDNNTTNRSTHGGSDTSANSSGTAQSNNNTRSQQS

[5] = target: T2, Penicillin-binding protein 3 (Staphylococcus aureus, UniProt Q5D1F0); experiment: Inhibition of Penicillin-binding protein 3 (PBP3) from Staphylococcus aureus
T2 sequence (Q5D1F0 whole entry): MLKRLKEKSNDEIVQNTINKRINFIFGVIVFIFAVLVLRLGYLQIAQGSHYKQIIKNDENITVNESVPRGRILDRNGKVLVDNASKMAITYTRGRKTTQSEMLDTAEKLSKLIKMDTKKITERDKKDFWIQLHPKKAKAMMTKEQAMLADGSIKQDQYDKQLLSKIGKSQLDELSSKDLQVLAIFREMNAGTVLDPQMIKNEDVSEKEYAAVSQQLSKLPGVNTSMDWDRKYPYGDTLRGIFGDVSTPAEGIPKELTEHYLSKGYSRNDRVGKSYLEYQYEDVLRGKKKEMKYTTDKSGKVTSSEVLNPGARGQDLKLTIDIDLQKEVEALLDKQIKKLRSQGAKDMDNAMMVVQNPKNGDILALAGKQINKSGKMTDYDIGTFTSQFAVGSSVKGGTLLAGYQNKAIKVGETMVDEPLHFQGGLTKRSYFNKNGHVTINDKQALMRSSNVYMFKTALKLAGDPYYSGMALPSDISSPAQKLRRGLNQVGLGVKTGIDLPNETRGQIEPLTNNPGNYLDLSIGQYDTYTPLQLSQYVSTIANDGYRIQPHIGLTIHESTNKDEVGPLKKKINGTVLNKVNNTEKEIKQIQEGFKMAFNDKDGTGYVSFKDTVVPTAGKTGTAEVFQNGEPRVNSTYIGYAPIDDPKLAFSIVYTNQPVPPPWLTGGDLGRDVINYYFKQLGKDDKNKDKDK

[6] = target: T3, Penicillin-binding protein 1 (Staphylococcus aureus, UniProt Q53725); experiment: Inhibition of Penicillin-binding protein 1 (PBP1) from Staphylococcus aureus
T3 sequence (Q53725 whole entry): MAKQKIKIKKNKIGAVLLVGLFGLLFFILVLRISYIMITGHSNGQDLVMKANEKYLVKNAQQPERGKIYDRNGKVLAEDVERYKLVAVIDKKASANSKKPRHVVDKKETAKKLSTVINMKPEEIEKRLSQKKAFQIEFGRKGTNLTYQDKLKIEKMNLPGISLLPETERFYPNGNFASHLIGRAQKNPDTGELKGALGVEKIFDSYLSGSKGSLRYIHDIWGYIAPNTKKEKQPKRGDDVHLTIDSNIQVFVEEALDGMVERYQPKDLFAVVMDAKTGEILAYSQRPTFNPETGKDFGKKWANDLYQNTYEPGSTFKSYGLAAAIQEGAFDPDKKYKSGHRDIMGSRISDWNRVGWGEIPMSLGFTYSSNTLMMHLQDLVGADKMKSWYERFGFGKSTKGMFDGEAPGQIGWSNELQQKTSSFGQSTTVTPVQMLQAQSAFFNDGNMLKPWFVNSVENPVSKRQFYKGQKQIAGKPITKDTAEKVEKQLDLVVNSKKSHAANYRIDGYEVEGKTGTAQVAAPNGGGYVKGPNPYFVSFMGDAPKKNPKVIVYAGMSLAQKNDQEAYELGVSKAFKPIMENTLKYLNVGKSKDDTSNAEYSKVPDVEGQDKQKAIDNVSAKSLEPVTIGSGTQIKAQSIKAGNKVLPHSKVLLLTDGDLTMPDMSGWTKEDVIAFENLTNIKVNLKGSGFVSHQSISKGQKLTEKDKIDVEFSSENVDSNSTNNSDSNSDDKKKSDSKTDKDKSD

[7] = Half life period was measured at pH 7.4 in phosphate buffer; type: ADME
Enterobacter cloacae [8] = experiment: In vitro antibacterial activity against Enterobacter cloacae; type: functional
Klebsiella pneumoniae [9] = experiment: In vitro antibacterial activity against Klebsiella pneumoniae; type: functional
Moraxella catarrhalis [10] = experiment: In vitro antibacterial activity against Moraxella catarrhalis; type: functional
Enterobacter cloacae [11] = experiment: In vitro antibacterial activity against Enterobacter cloacae; range is 125->1000; type: functional
Klebsiella pneumoniae [12] = experiment: In vitro antibacterial activity against Klebsiella pneumoniae; range is 125->1000; type: functional
Moraxella catarrhalis [13] = experiment: In vitro antibacterial activity against Moraxella catarrhalis; range is 125->1000; type: functional
Enterobacter cloacae [14] = experiment: In vitro antibacterial activity against Enterobacter cloacae; range is 62.6->1000; type: functional
Klebsiella pneumoniae [15] = experiment: In vitro antibacterial activity against Klebsiella pneumoniae; range is 62.6->1000; type: functional
Moraxella catarrhalis [16] = experiment: In vitro antibacterial activity against Moraxella catarrhalis; range is 62.6->1000; type: functional
Klebsiella pneumoniae [17] = experiment: In vitro antibacterial activity against Klebsiella pneumoniae; range is 15.6->1000; type: functional
Moraxella catarrhalis [18] = experiment: In vitro antibacterial activity against Moraxella catarrhalis; range is 15.6->1000; type: functional
Enterobacter cloacae [19] = experiment: In vitro antibacterial activity against Enterobacter cloacae; range is 15.6->1000; type: functional
Enterobacter cloacae [20] = experiment: In vitro antibacterial activity against Enterobacter cloacae; range is 16->1000; type: functional
Klebsiella pneumoniae [21] = experiment: In vitro antibacterial activity against Klebsiella pneumoniae; range is 16->1000; type: functional
Moraxella catarrhalis [22] = experiment: In vitro antibacterial activity against Moraxella catarrhalis; range is 16->1000; type: functional
Klebsiella pneumoniae [23] = experiment: In vitro antibacterial activity against Klebsiella pneumoniae; range is 1.6->100; type: functional
Staphylococcus aureus [24] = experiment: In vitro antibacterial activity against Staphylococcus aureus; range is 1.6->100; type: functional
Streptococcus pneumoniae [25] = experiment: In vitro antibacterial activity against Streptococcus pneumoniae; range is 1.6->100; type: functional
Klebsiella pneumoniae [26] = experiment: In vitro antibacterial activity against Klebsiella pneumoniae; range is 2->32; type: functional
Staphylococcus aureus [27] = experiment: In vitro antibacterial activity against Staphylococcus aureus; range is 2->32; type: functional
Streptococcus pneumoniae [28] = experiment: In vitro antibacterial activity against Streptococcus pneumoniae; range is 2->32; type: functional
Klebsiella pneumoniae [29] = experiment: In vitro antibacterial activity against Klebsiella pneumoniae; range is 62.5->1000; type: functional
Staphylococcus aureus [30] = experiment: In vitro antibacterial activity against Staphylococcus aureus; range is 62.5->1000; type: functional
Streptococcus pneumoniae [31] = experiment: In vitro antibacterial activity against Streptococcus pneumoniae; range is 62.5->1000; type: functional

Row | IC50 [4] [µM] | IC50 [5] [µM] | IC50 [6] [µM] | half-life [7] [h] | MIC (Enterobacter cloacae [8]) [µg/mL] | MIC (Klebsiella pneumoniae [9]) [µg/mL] | MIC (Moraxella catarrhalis [10]) [µg/mL] | SMILES | also measured
1 | > 568 | > 568 | > 568 | 15.8 |  |  |  | CC(C)C(C(=O)OC(C)(C)C)N1C(=O)C(NC(=O)OCc2ccccc2)CS1(=O)=O (stereo unspecified) | MIC (Enterobacter cloacae [1]): 31.3 µg/mL (≈ 71.1 µM); MIC (Klebsiella pneumoniae [2]): 31.3 µg/mL (≈ 71.1 µM); MIC (Moraxella catarrhalis [3]): 31.3 µg/mL (≈ 71.1 µM)
2 | > 679 | > 679 | > 679 | < 1.4 | > 1000 | > 1000 | > 1000 | CC(C)[C@@H](C(=O)O)N1C(=O)[C@@H](NC(=O)COc2ccccc2)C[S+]1[O-] (stereo partly specified) | 
3 | > 578 | > 578 | > 578 |  |  |  |  | CC(C(=O)OC(C)(C)C)N1C(=O)C(NC(=O)Oc2ccc(Cl)cc2)CS1(=O)=O (stereo unspecified) | MIC (Enterobacter cloacae [1]): 31.3 µg/mL (≈ 72.3 µM); MIC (Klebsiella pneumoniae [2]): 31.3 µg/mL (≈ 72.3 µM); MIC (Moraxella catarrhalis [3]): 31.3 µg/mL (≈ 72.3 µM)
4 | > 730 | > 730 | > 730 | 11.9 | > 100 | > 100 | > 100 | O=C(O)CN1C(=O)C(NC(=O)COc2ccccc2)CS1(=O)=O (stereo unspecified) | 
5 | > 664 | > 664 | > 664 | 15.7 |  |  |  | CC(C(=O)O)N1C(=O)C(NC(=O)Oc2ccc(Cl)cc2)CS1(=O)=O (stereo unspecified) | MIC (Enterobacter cloacae [11]): 125 µg/mL (≈ 332 µM); MIC (Klebsiella pneumoniae [12]): 125 µg/mL (≈ 332 µM); MIC (Moraxella catarrhalis [13]): 125 µg/mL (≈ 332 µM)
6 | > 495 | > 495 | > 495 | 5.6 | > 64 | > 64 | > 64 | CO/N=C(/C(=O)NC1CS(=O)(=O)N(CC(=O)O)C1=O)c1csc(N)n1.O=C(O)C(F)(F)F (stereo unspecified) | 
7 | > 545 | > 545 | > 545 | < 0.5 |  |  |  | CC(C)[C@H](C(=O)OCc1ccccc1)N1C(=O)[C@@H](NC(=O)COc2ccccc2)C[S+]1[O-] (stereo partly specified) | MIC (Enterobacter cloacae [14]): 62.6 µg/mL (≈ 137 µM); MIC (Klebsiella pneumoniae [15]): 62.6 µg/mL (≈ 137 µM); MIC (Moraxella catarrhalis [16]): 62.6 µg/mL (≈ 137 µM)
8 | > 552 | > 552 | > 552 | 5.1 |  |  |  | O=C(CN1C(=O)C(NC(=O)Oc2ccc(Cl)cc2)CS1(=O)=O)OCc1ccccc1 (stereo unspecified) | MIC (Klebsiella pneumoniae [17]): 15.6 µg/mL (≈ 34.4 µM); MIC (Moraxella catarrhalis [18]): 15.6 µg/mL (≈ 34.4 µM); MIC (Enterobacter cloacae [19]): 15.6 µg/mL (≈ 34.4 µM)
9 | > 679 | > 679 | > 679 | < 3.3 | > 1000 | > 1000 | > 1000 | CC(C)[C@H](C(=O)O)N1C(=O)[C@@H](NC(=O)COc2ccccc2)C[S+]1[O-] (stereo partly specified) | 
10 | > 650 | > 650 | > 650 | 22 |  |  |  | CC(C)[C@@H](C(=O)O)N1C(=O)C(NC(=O)COc2ccccc2)CS1(=O)=O (stereo partly specified) | MIC (Enterobacter cloacae [20]): 16 µg/mL (≈ 41.6 µM); MIC (Klebsiella pneumoniae [21]): 16 µg/mL (≈ 41.6 µM); MIC (Moraxella catarrhalis [22]): 16 µg/mL (≈ 41.6 µM)
11 | > 532 | > 532 | > 532 | < 0.4 | > 64 | > 64 | > 64 | CCCCNOS(=O)(=O)N1C(=O)[C@@H](NC(=O)COc2ccc(Cl)cc2)CS1(=O)=O | 
12 | > 703 | > 703 | > 703 |  |  |  |  | CCCCNOS(=O)(=O)N1C[C@H](NC(=O)Cc2ccccc2)C1=O | MIC (Klebsiella pneumoniae [23]): 1.6 µg/mL (≈ 4.5 µM); MIC (Staphylococcus aureus [24]): 1.6 µg/mL (≈ 4.5 µM); MIC (Streptococcus pneumoniae [25]): 1.6 µg/mL (≈ 4.5 µM)
13 | > 780 | > 780 | > 780 | > 48 |  |  |  | CC(C)[C@H](C(=O)O)N1C[C@H](NC(=O)COc2ccccc2)C1=O | MIC (Klebsiella pneumoniae [26]): 2 µg/mL (≈ 6.24 µM); MIC (Staphylococcus aureus [27]): 2 µg/mL (≈ 6.24 µM); MIC (Streptococcus pneumoniae [28]): 2 µg/mL (≈ 6.24 µM)
14 | > 898 | > 898 | > 898 | > 32 |  |  |  | O=C(O)CN1C[C@H](NC(=O)COc2ccccc2)C1=O | MIC (Klebsiella pneumoniae [29]): 62.5 µg/mL (≈ 225 µM); MIC (Staphylococcus aureus [30]): 62.5 µg/mL (≈ 225 µM); MIC (Streptococcus pneumoniae [31]): 62.5 µg/mL (≈ 225 µM)

From ChEMBL document CHEMBL1133904, “Stereoselective synthesis and antibacterial evaluation of 4-amido-isothiazolidinone oxides” (Bioorg Med Chem Lett, 2001)
